{"source": "paper PMC12549899", "about": "(Nature Communications, 2025)", "key": {"[1]": {"molecular_target": "T1, DrOTOP1 mutants targeting the C-domain pocket (Danio rerio, UniProt Q7ZWK8, G346F/I565W)", "T1 construct": "A previously generated codon-optimized full-length DrOTOP1[8]; (UniProt: Q7ZWK8) construct; expressed in transfected cells; host or cells: HEK-293 (CRL-1573, ATCC)", "T1 sequence (Q7ZWK8 1-586 G346F/I565W)": "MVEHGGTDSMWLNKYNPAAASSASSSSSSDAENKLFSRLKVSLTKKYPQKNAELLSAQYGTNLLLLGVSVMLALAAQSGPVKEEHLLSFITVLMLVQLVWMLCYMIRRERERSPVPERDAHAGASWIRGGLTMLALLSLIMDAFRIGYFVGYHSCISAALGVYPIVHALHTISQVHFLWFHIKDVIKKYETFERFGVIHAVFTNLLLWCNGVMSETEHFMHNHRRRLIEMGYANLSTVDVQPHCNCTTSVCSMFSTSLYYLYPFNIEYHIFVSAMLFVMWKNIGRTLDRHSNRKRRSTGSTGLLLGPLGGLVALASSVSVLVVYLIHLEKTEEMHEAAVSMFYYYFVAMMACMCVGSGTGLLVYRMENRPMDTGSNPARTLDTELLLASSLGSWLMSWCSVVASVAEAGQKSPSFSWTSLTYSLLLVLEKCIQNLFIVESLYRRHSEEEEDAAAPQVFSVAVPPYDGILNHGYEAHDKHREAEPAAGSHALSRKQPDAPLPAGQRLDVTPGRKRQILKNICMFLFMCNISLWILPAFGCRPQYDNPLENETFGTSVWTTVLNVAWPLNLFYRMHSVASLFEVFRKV", "assay": "Whole-cell patch-clamp, inhibition of acid-evoked currents, other DrOTOP1 C-domain pocket mutants (e.g. G346F, Y422F, L531F, I565W/G346F; Supplementary Fig. 5)", "type": "cell-based, zebrafish (Danio rerio)", "conditions": "DrOTOP1 I565W / G346F; Supp. Fig 5C", "source_text": "(§1) To experimentally verify whether C11 and C2.2 bind in the C-domain pocket as predicted, we used their docked poses to guide mutagenesis. The predicted interactions for C11 and C2.2 include π-stacking with F342 and Y422, potential H-bonding with Q542, N568, and R572 (Fig. 2J, K and Supplementary Fig. 5A), and hydrophobic packing. We generated single-residue mutants of these and other residues in DrOTOP1 that were expected to disrupt specific molecular interactions or to introduce a bulky tryptophan residue (W) to produce steric hindrance.\n(§2) We next tested a subset of these mutants for sensitivity to C2.2, focusing on those that could occlude the C-domain pocket. […]\n(§3) Whole-cell patch-clamp recording was performed as previously described[6],[22],[25]. Recordings were made with an Axopatch 200B amplifier, digitized with a Digidata 1322a 16-bit data acquisition system, acquired with pClamp 8.2 and analyzed with Clampfit 10 (Molecular Devices). […]\n(§4) All data are presented as mean ± SEM unless otherwise noted, and each data point represents an independent replicant. Inhibition of compounds was quantified as ((I2peak-I1)/(I2peak))*100, where I1 is the current immediately before wash-off and I2peak is the maximum recovered current (Supplementary Fig. 2). Hill coefficients were determined by the following equation: Y = Bmax*X^h/(Kd^h + X^h). […]"}, "[2]": {"molecular_target": "T2, DrOTOP1 mutants targeting the C-domain pocket (Danio rerio, UniProt Q7ZWK8, G346F)", "T2 construct": "A previously generated codon-optimized full-length DrOTOP1[8]; (UniProt: Q7ZWK8) construct; expressed in transfected cells; host or cells: HEK-293 (CRL-1573, ATCC)", "T2 sequence (Q7ZWK8 1-586 G346F)": "T1 sequence (Q7ZWK8 1-586 G346F/I565W) with W565I", "assay": "Whole-cell patch-clamp, inhibition of acid-evoked currents, other DrOTOP1 C-domain pocket mutants (e.g. G346F, Y422F, L531F, I565W/G346F; Supplementary Fig. 5)", "type": "cell-based, zebrafish (Danio rerio)", "conditions": "100 µM; DrOTOP1 G346F; compared with WT", "source_text": "as §1, §2, §3, §4"}}, "note": "Where a chain is given by its changes, count along the chain named."}
{"smiles": "O=C(/C(=N\\O)c1ccccc1)c1ccccc1", "note": "[C11, benzil monoxime]", "values": [{"measurement": "inhibition of acid-evoked current, mean (Mean of column R)", "setting": "[1]", "result": 28}, {"measurement": "Inhibition of currents", "setting": "[2]", "result": "slightly reduced inhibition"}]}
